The values that follow come from article PMC3858566, “Identification of a novel peptide that blocks basic fibroblast growth factor-mediated cell proliferation” (Oncotarget, 2013).

Where no end group is shown, it is not given here.

The test system of assay [1] is B16-F10 murine melanoma cells. As to conditions: 48 h, 10 nM.
Description: Cells were seeded in 96-well plates (5 × 10^3 cells/well) in DMEM containing 10% FBS. After incubation at 37°C for 24 h, the culture medium was replaced by DMEM containing 0.4% FBS to starve the cells for 24 h. The medium was then replaced by DMEM containing 30 ng/ml bFGF, or 30 ng/mL bFGF plus peptide at various concentrations. After culturing for 48 h, the number of viable cells was determined by the methylthiazoletetrazolium (MTT) method as previously described [5].
The subject of the next assay is B16-F10 cells. Description: Flow cytometric analysis of cell cycle. It is filed as cell-based, murine. The conditions noted are these: 48 h. The protocol: Cells were starved for 24 h, and treated with 30 ng/ml bFGF or 30 ng/mL bFGF plus serially-diluted peptides for 48 h. After fixing in 70% ice-cold ethanol for 30 min at 4 °C and washing with PBS for 3 times, cells were stained with propidium iodide (PI) in the dark at room temperature for 30 min. The ModFit DNA analysis program was applied to analyze the percentages of cells at various phases of the cell cycle.
Background: Flow cytometry measures light scatter and fluorescence of single cells or particles in a stream.

In assay [2] the test system is bFGF receptors on Balb/c 3T3 cells. The conditions noted are these: range of values previously published; cited from earlier work.
The test system is the same in assay [3]. Description: Receptor binding assay (125I-bFGF competition, Scatchard analysis). The protocol: The recombinant bFGF was iodinated by the modified chloramine-T method. Briefly, bFGF (5 μg/50 μ1 in 0.5 M phosphate buffer, pH 7.4) was incubated with chloramine-T (20 μg/10 µl of phosphate buffer) and ^125I-labeled sodium (1.12 mCi/10 μ1) at room temperature for 55 sec. The reaction was immediately terminated by the addition of sodium metabisulflte (250 μg/200 μl) and 1% potassium iodide (100 μl), and the mixture was applied to a Sephadex G-50 column (1×20 cm) preequilibrated in 50 mM phosphate buffer containing 0.1% BSA to separate ^125I-labeled bFGF from free ^125I.
Confluent Balb/c 3T3 cells (0.5×10^6/well) were incubated with binding buffer (DMEM, 20mM HEPES, pH7.4) containing ^125I-bFGF (50000 cpm) and different concentrations of unlabeled ligand (bFGF or the synthetic peptide) for 2.5 h at 4°C. For nonspecific binding, cells were incubated with ^125I-bFGF (50000 cpm) and an excess of unlabeled bFGF (200 nM). The cells were washed with (3 × 1 ml) cold PBS (50 mM, PH7.4), and lysed with 1% Triton X-100 (500 μl). The radioactivity of the extracts was measured in a γ counter. Specific binding was determined as the difference between total and nonspecific binding, and data were analyzed by Scatchard analysis.

Assay [4] deals with T1, bFGF receptors (FGFR1c/FGFR2c on Balb/c 3T3 cells) (Mus musculus, UniProt P16092).
T1 chain: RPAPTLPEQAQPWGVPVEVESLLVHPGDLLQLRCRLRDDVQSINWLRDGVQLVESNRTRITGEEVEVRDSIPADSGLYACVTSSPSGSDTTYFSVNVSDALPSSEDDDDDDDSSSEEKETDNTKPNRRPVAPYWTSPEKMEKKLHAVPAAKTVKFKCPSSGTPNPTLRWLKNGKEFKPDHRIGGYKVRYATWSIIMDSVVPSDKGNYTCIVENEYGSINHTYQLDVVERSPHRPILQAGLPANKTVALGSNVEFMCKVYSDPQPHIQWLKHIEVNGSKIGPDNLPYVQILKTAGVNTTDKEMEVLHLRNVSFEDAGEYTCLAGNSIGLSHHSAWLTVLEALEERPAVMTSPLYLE
Description: 125I-bFGF competition binding on cells.

Where [5] appears, read: 30 ng/ml bFGF alone, mean ± SD of 3 independent experiments.

Broadly, the IC50 is the concentration at which inhibition is half-maximal. Low values mean inhibition by little substance, high ones a need for much substance.

For the molecule LSPPRYPGGGS-NH2 [P9 peptides], the “inhibition of bFGF-stimulated proliferation” value in assay [1] is on record as around 90%.

In the assay on B16-F10 cells (setting [5]), basic fibroblast growth factor [bFGF] came in with a G0/G1 of 26.45 ± 1.01% and a G2/M of 7.46 ± 0.56%. In addition, the S in the assay with B16-F10 cells (30 ng/ml bFGF alone, mean ± SD of 3 independent experiments, * P<0.01 vs control group) is on record as 66.09 ± 1.22%. For the same molecule, the “effect of bFGF on cell cycle” value in the assay on B16-F10 cells (bFGF alone, 30 ng/ml) is “significantly increased the percentage of S phase cells, and decreased the ratio of G0/G1 phase cells”. In addition, the “receptor sites per cell of high affinity bFGF receptors, previously published” value in assay [2] is listed as 0.2-10 ×10^4 sites/cell.

Take “^125I-bFGF: recombinant bFGF iodinated by the modified chloramine-T method”: in assay [3], the “receptor population, 125I-bFGF binding, without P9” value is “approximately 9,600 sites/cell”.

For LSPPRYPGGGS-NH2 [P9 peptide], in assay [4], the IC50 is around 2.5 nM.
